Test results taken from patent US20160331798A1, “NATURAL PRODUCT INHIBITORS OF 3DG” (Dynamis Pharmaceuticals, Inc., priority 2008, published 2016).
Counter-ions that a name gives are not always drawn.

Tests used:
[1] = in vivo; cited from earlier work
[2] = 3DG inactivation assay (3DG binding assay); settings: for 3DG inactivating activity: summary of Table 3
Description: The following assay was used to determine inactivation of 3DG by various natural products and chemicals.
• 1. Dilute the samples with Reagent 1 to a volume of 1.9 ml and add 100 uL Reagent 6 to a total of 2 mL. • 2. Take 600 μL from each solution before incubation (as 0 day sample) • 3. Let sit for 24 hours and 72 hours at 37° and remove 600 μL for samples on day 1 and day 3) • 4.

[3] = animal models; cited from earlier work

N[C@@H](CCCCNC[C@@H](O)[C@@H](O)[C@H](O)[C@H](O)CO)C(=O)O [mannitollysine]
urinary or plasma 3DG [1]: reduced

Thiamine nitrate
3DG Conc ([2]; 5 mM, 1 day, 37°): 15.87 µM | 3DG Conc ([2]; 5 mM, 3 days, 37°): 16.45 µM | 3DG Conc ([2]; 15 mM, 1 day, 37°): 18.90 µM | 3DG Conc ([2]; 15 mM, 3 days, 37°): 14.19 µM | 3DG Conc ([2]; 30 mM, 1 day, 37°): 17.20 µM | 3DG Conc ([2]; 30 mM, 3 days, 37°): 14.85 µM

N[C@@H](CCCCNC[C@H](O)[C@@H](O)[C@@H](O)[C@H](O)CO)C(=O)O [galactitollysine]
urinary or plasma 3DG [1]: reduced

Cc1ncc(C[n+]2csc(CCO)c2C)c(N)n1 [Thiamine-HCl]
3DG Conc ([2]; 5 mM, 1 day, 37°): 16.27 µM | 3DG Conc ([2]; 5 mM, 3 days, 37°): 14.49 µM | 3DG Conc ([2]; 15 mM, 1 day, 37°): 14.83 µM | 3DG Conc ([2]; 15 mM, 3 days, 37°): 14.81 µM | 3DG Conc ([2]; 30 mM, 1 day, 37°): 17.76 µM | 3DG Conc ([2]; 30 mM, 3 days, 37°): 14.89 µM

Cc1ncc(COP(=O)(O)O)c(C=O)c1O [Pyridoxal-5′-Phosphate]
3DG Conc ([2]; 2 mM, 1 day, 37°): 13.71 µM | 3DG Conc ([2]; 2 mM, 3 days, 37°): 12.29 µM | 3DG Conc ([2]; 6 mM, 1 day, 37°): 13.00 µM | 3DG Conc ([2]; 6 mM, 3 days, 37°): 8.12 µM | 3DG Conc ([2]; 12 mM, 1 day, 37°): 12.20 µM | 3DG Conc ([2]; 12 mM, 3 days, 37°): 7.14 µM | 3DG inactivating activity [2]: most amount of 3DG inactivating activity

Cc1ncc(CO)c(C=O)c1O.Cl [Pyridoxal-HCl]
3DG Conc ([2]; 2 mM, 0 day): 16.46 µM | 3DG Conc ([2]; 2 mM, 1 day, 37°): 12.16 µM | 3DG Conc ([2]; 2 mM, 3 days, 37°): 16.19 µM | 3DG Conc ([2]; 6 mM, 0 day): 16.02 µM | 3DG Conc ([2]; 6 mM, 1 day, 37°): 14.57 µM | 3DG Conc ([2]; 6 mM, 3 days, 37°): 15.72 µM | 3DG Conc ([2]; 12 mM, 0 day): 14.80 µM | 3DG Conc ([2]; 12 mM, 1 day, 37°): 14.79 µM | 3DG Conc ([2]; 12 mM, 3 days, 37°): 14.99 µM

Cl.N[C@H]1C(O)O[C@H](CO)[C@@H](O)[C@@H]1O (stereo partly drawn) [Glucosamine HCl, D-Glucosamine HCl]
3DG Conc ([2]; 5 mM, 0 day): 25.15 µM | 3DG Conc ([2]; 5 mM, 1 day, 37°): 43.42 µM | 3DG Conc ([2]; 5 mM, 3 days, 37°): 82.33 µM | 3DG Conc ([2]; 15 mM, 0 day): 36.00 µM | 3DG Conc ([2]; 15 mM, 1 day, 37°): 122.14 µM | 3DG Conc ([2]; 15 mM, 3 days, 37°): 181.09 µM | 3DG Conc ([2]; 30 mM, 0 day): 56.87 µM | 3DG Conc ([2]; 30 mM, 1 day, 37°): 183.92 µM | 3DG Conc ([2]; 30 mM, 3 days, 37°): 173.60 µM

N=C(N)NCCC[C@H](N)C(=O)O [Arginine]
3DG Conc ([2]; 2 mM, 1 day, 37°): 15.71 µM | 3DG Conc ([2]; 2 mM, 3 days, 37°): 13.14 µM | 3DG Conc ([2]; 6 mM, 1 day, 37°): 13.66 µM | 3DG Conc ([2]; 6 mM, 3 days, 37°): 8.50 µM | 3DG Conc ([2]; 12 mM, 1 day, 37°): 12.24 µM | 3DG Conc ([2]; 12 mM, 3 days, 37°): 4.98 µM | 3DG inactivating activity [2]: most amount of 3DG inactivating activity

Cc1ncc(CO)c(CO)c1O [Pyridoxine]
3DG Conc ([2]; 2 mM, 0 day): 16.32 µM | 3DG Conc ([2]; 2 mM, 1 day, 37°): 14.82 µM | 3DG Conc ([2]; 2 mM, 3 days, 37°): 16.35 µM | 3DG Conc ([2]; 6 mM, 0 day): 16.13 µM | 3DG Conc ([2]; 6 mM, 1 day, 37°): 16.67 µM | 3DG Conc ([2]; 6 mM, 3 days, 37°): 15.83 µM | 3DG Conc ([2]; 12 mM, 0 day): 15.90 µM | 3DG Conc ([2]; 12 mM, 1 day, 37°): 15.85 µM | 3DG Conc ([2]; 12 mM, 3 days, 37°): 15.44 µM

NC[C@H]1CC[C@H](C(=O)O)CC1 [Tranexamic Acid, reference compound]
3DG Conc ([2]; 5 mM, 0 day): 20.96 µM | 3DG Conc ([2]; 5 mM, 1 day, 37°): 24.16 µM | 3DG Conc ([2]; 5 mM, 3 days, 37°): 22.02 µM | 3DG Conc ([2]; 15 mM, 0 day): 18.06 µM | 3DG Conc ([2]; 15 mM, 1 day, 37°): 18.98 µM | 3DG Conc ([2]; 15 mM, 3 days, 37°): 19.21 µM | 3DG Conc ([2]; 30 mM, 0 day): 19.25 µM | 3DG Conc ([2]; 30 mM, 1 day, 37°): 17.42 µM | 3DG Conc ([2]; 30 mM, 3 days, 37°): 16.87 µM

N=C(N)NN [Aminoguanidine]
AGEs-associated retinal, neural, arterial, and renal pathologies [3]: reduces

CC(C)(CO)[C@@H](O)C(=O)NCCC(=O)[O-].CC(C)(CO)[C@@H](O)C(=O)NCCC(=O)[O-].[Ca+2] [Calcium Panthenate]
3DG Conc ([2]; 2.5 mM, 1 day, 37°): 17.27 µM | 3DG Conc ([2]; 2.5 mM, 3 days, 37°): 16.18 µM | 3DG Conc ([2]; 5 mM, 0 day): 21.06 µM | 3DG Conc ([2]; 5 mM, 1 day, 37°): 18.13 µM | 3DG Conc ([2]; 5 mM, 3 days, 37°): 17.96 µM | 3DG Conc ([2]; 7.5 mM, 1 day, 37°): 16.92 µM | 3DG Conc ([2]; 7.5 mM, 3 days, 37°): 15.37 µM | 3DG Conc ([2]; 12.5 mM, 1 day, 37°): 18.58 µM | 3DG Conc ([2]; 12.5 mM, 3 days, 37°): 14.57 µM | 3DG Conc ([2]; 15 mM, 0 day): 22.86 µM | 3DG Conc ([2]; 15 mM, 1 day, 37°): 18.84 µM | 3DG Conc ([2]; 15 mM, 3 days, 37°): 16.95 µM | 3DG Conc ([2]; 30 mM, 0 day): 22.09 µM | 3DG Conc ([2]; 30 mM, 1 day, 37°): 19.56 µM | 3DG Conc ([2]; 30 mM, 3 days, 37°): 19.17 µM

CNC[C@H](O)[C@@H](O)[C@H](O)[C@H](O)CO.Cl [Meglumine-HCl, reference compound]
3DG Conc ([2]; 5 mM, 1 day, 37°): 17.51 µM | 3DG Conc ([2]; 5 mM, 3 days, 37°): 16.27 µM | 3DG Conc ([2]; 15 mM, 1 day, 37°): 16.58 µM | 3DG Conc ([2]; 15 mM, 3 days, 37°): 17.52 µM | 3DG Conc ([2]; 30 mM, 1 day, 37°): 15.39 µM | 3DG Conc ([2]; 30 mM, 3 days, 37°): 15.87 µM

CC(C)(CO)[C@@H](O)C(=O)NCCCO [Panthenol]
3DG Conc ([2]; 5 mM, 0 day): 19.54 µM | 3DG Conc ([2]; 5 mM, 1 day, 37°): 18.10 µM | 3DG Conc ([2]; 5 mM, 3 days, 37°): 19.51 µM | 3DG Conc ([2]; 15 mM, 0 day): 18.08 µM | 3DG Conc ([2]; 15 mM, 1 day, 37°): 17.74 µM | 3DG Conc ([2]; 15 mM, 3 days, 37°): 16.84 µM | 3DG Conc ([2]; 30 mM, 0 day): 18.91 µM | 3DG Conc ([2]; 30 mM, 1 day, 37°): 17.67 µM | 3DG Conc ([2]; 30 mM, 3 days, 37°): 17.63 µM

N[C@@H](CCCCNC[C@H](O)[C@@H](O)[C@H](O)[C@H](O)CO)C(=O)O [sorbitollysine]
urinary or plasma 3DG [1]: reduced

NCCC(=O)N[C@@H](Cc1cnc[nH]1)C(=O)O [Carnosine]
3DG Conc ([2]; 2 mM, 1 day, 37°): 16.85 µM | 3DG Conc ([2]; 2 mM, 3 days, 37°): 15.58 µM | 3DG Conc ([2]; 5 mM, 1 day, 37°): 16.18 µM | 3DG Conc ([2]; 5 mM, 3 days, 37°): 14.58 µM | 3DG Conc ([2]; 6 mM, 1 day, 37°): 15.96 µM | 3DG Conc ([2]; 6 mM, 3 days, 37°): 16.93 µM | 3DG Conc ([2]; 12 mM, 1 day, 37°): 15.05 µM | 3DG Conc ([2]; 12 mM, 3 days, 37°): 12.37 µM | 3DG Conc ([2]; 15 mM, 1 day, 37°): 16.90 µM | 3DG Conc ([2]; 15 mM, 3 days, 37°): 15.39 µM | 3DG Conc ([2]; 30 mM, 1 day, 37°): 18.45 µM | 3DG Conc ([2]; 30 mM, 3 days, 37°): 13.97 µM

O=C1O[C@H]([C@@H](O)CO)C(O)=C1O [Ascorbic Acid]
3DG Conc ([2]; 5 mM, 1 day, 37°): 13.75 µM | 3DG Conc ([2]; 5 mM, 3 days, 37°): 11.86 µM | 3DG Conc ([2]; 15 mM, 1 day, 37°): 13.99 µM | 3DG Conc ([2]; 15 mM, 3 days, 37°): 10.18 µM | 3DG Conc ([2]; 30 mM, 1 day, 37°): 17.26 µM | 3DG Conc ([2]; 30 mM, 3 days, 37°): 12.64 µM
